Measurements from the supplement of paper PMC10307832.

Tests used:
Assay in all cases: relative viability (nuclei count vs DMSO), 5 days (fraction); higher = more cells survive
NCI-H1793 = tested on: NCI-H1793
In short: (§1)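 After 5 days of treatment, lung cancer cells in 1536-well plates were fixed and stained in a single step (final 0.05% Triton X-100, 1% formaldehyde, 1 ug/ml Hoechst) and their nuclei counted on 4× images. Treatment had been applied by pin tool the day after seeding as one drug alone or as a fixed anchor-drug dose with five library-drug doses (not always all listed) in √10 steps. Relative viability is the nuclei count of treated wells divided by that of vehicle wells, and values are medians of duplicate plates.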

BEN = tested on: BEN
In short: as §1

NCI-H1792 = tested on: NCI-H1792
In short: as §1

NCI-H727 = tested on: NCI-H727
In short: as §1

HCC-827 = tested on: HCC-827
In short: as §1

LCLC-97TM1 = tested on: LCLC-97TM1
In short: as §1

NCI-H1650 = tested on: NCI-H1650
In short: as §1

NCI-H322M = tested on: NCI-H322M
In short: as §1

RERF-LC-KJ = tested on: RERF-LC-KJ
In short: as §1

NCI-H2228 = tested on: NCI-H2228
In short: as §1

LCLC-103H = tested on: LCLC-103H
In short: as §1

NCI-H2405 = tested on: NCI-H2405
In short: as §1

NCI-H1944 = tested on: NCI-H1944
In short: as §1

NCI-H647 = tested on: NCI-H647
In short: as §1

LXF-289 = tested on: LXF-289
In short: as §1

SK-LU-1 = tested on: SK-LU-1
In short: as §1

NCI-H1395 = tested on: NCI-H1395
In short: as §1

NCI-H3122 = tested on: NCI-H3122
In short: as §1

201T = tested on: 201T
In short: as §1

CAL-12T = tested on: CAL-12T
In short: as §1

NCI-H1437 = tested on: NCI-H1437
In short: as §1

NCI-H2087 = tested on: NCI-H2087
In short: as §1

## COc1nc(C)cnc1NS(=O)(=O)c1cccnc1-c1ccc(-c2nnco2)cc1 [Zibotentan] + Cc1nc(Nc2ncc(C(=O)Nc3c(C)cccc3Cl)s2)cc(N2CCN(CCO)CC2)n1 [Dasatinib] (partner 0.075 µM)
NCI-H1793; first compound 0.08 µM
  relative viability: 0.345
NCI-H1793; first compound 0.253 µM
  relative viability: 0.363
NCI-H1793; first compound 0.8 µM
  relative viability: 0.406
NCI-H1793; first compound 2.53 µM
  relative viability: 0.379
BEN; first compound 0.08 µM
  relative viability: 0.289
BEN; first compound 0.253 µM
  relative viability: 0.32
BEN; first compound 0.8 µM
  relative viability: 0.316
BEN; first compound 2.53 µM
  relative viability: 0.353
NCI-H1792; first compound 0.08 µM
  relative viability: 0.872
NCI-H1792; first compound 0.253 µM
  relative viability: 0.664
NCI-H1792; first compound 0.8 µM
  relative viability: 0.635
NCI-H1792; first compound 2.53 µM
  relative viability: 0.827
NCI-H727; first compound 0.08 µM
  relative viability: 0.333
NCI-H727; first compound 0.253 µM
  relative viability: 0.251
NCI-H727; first compound 0.8 µM
  relative viability: 0.279
NCI-H727; first compound 2.53 µM
  relative viability: 0.372
HCC-827; first compound 0.08 µM
  relative viability: 0.394
HCC-827; first compound 0.253 µM
  relative viability: 0.267
HCC-827; first compound 0.8 µM
  relative viability: 0.247
HCC-827; first compound 2.53 µM
  relative viability: 0.384
LCLC-97TM1; first compound 0.08 µM
  relative viability: 0.823
LCLC-97TM1; first compound 0.253 µM
  relative viability: 0.841
LCLC-97TM1; first compound 0.8 µM
  relative viability: 0.882
LCLC-97TM1; first compound 2.53 µM
  relative viability: 0.861
NCI-H1650; first compound 0.08 µM
  relative viability: 0.35
NCI-H1650; first compound 0.8 µM
  relative viability: 0.27
NCI-H1650; first compound 2.53 µM
  relative viability: 0.4
NCI-H322M; first compound 0.08 µM
  relative viability: 0.235
NCI-H322M; first compound 0.253 µM
  relative viability: 0.245
NCI-H322M; first compound 0.8 µM
  relative viability: 0.27
NCI-H322M; first compound 2.53 µM
  relative viability: 0.269
RERF-LC-KJ; first compound 0.08 µM
  relative viability: 0.863
RERF-LC-KJ; first compound 0.8 µM
  relative viability: 0.671
RERF-LC-KJ; first compound 2.53 µM
  relative viability: 0.749
NCI-H2228; first compound 0.08 µM
  relative viability: 0.554
NCI-H2228; first compound 0.253 µM
  relative viability: 0.509
NCI-H2228; first compound 0.8 µM
  relative viability: 0.495
NCI-H2228; first compound 2.53 µM
  relative viability: 0.608
LCLC-103H; first compound 0.08 µM
  relative viability: 0.47
LCLC-103H; first compound 0.253 µM
  relative viability: 0.562
LCLC-103H; first compound 0.8 µM
  relative viability: 0.451
LCLC-103H; first compound 2.53 µM
  relative viability: 0.531
NCI-H2405; first compound 0.08 µM
  relative viability: 0.238
NCI-H2405; first compound 0.253 µM
  relative viability: 0.193
NCI-H2405; first compound 0.8 µM
  relative viability: 0.218
NCI-H2405; first compound 2.53 µM
  relative viability: 0.212
NCI-H1944; first compound 0.08 µM
  relative viability: 0.193
NCI-H1944; first compound 0.253 µM
  relative viability: 0.211
NCI-H1944; first compound 0.8 µM
  relative viability: 0.221
NCI-H1944; first compound 2.53 µM
  relative viability: 0.224
NCI-H647; first compound 0.08 µM
  relative viability: 0.145
NCI-H647; first compound 0.253 µM
  relative viability: 0.185
NCI-H647; first compound 0.8 µM
  relative viability: 0.215
NCI-H647; first compound 2.53 µM
  relative viability: 0.195
LXF-289; first compound 0.08 µM
  relative viability: 0.247
LXF-289; first compound 0.253 µM
  relative viability: 0.22
LXF-289; first compound 0.8 µM
  relative viability: 0.206
LXF-289; first compound 2.53 µM
  relative viability: 0.244
SK-LU-1; first compound 0.08 µM
  relative viability: 0.17
SK-LU-1; first compound 0.253 µM
  relative viability: 0.172
SK-LU-1; first compound 0.8 µM
  relative viability: 0.189
SK-LU-1; first compound 2.53 µM
  relative viability: 0.198
NCI-H1395; first compound 0.08 µM
  relative viability: 0.409
NCI-H1395; first compound 0.253 µM
  relative viability: 0.403
NCI-H1395; first compound 0.8 µM
  relative viability: 0.409
NCI-H1395; first compound 2.53 µM
  relative viability: 0.407
NCI-H3122; first compound 0.08 µM
  relative viability: 0.807
NCI-H3122; first compound 0.253 µM
  relative viability: 0.817
NCI-H3122; first compound 0.8 µM
  relative viability: 0.701
NCI-H3122; first compound 2.53 µM
  relative viability: 0.751
201T; first compound 0.08 µM
  relative viability: 0.676
201T; first compound 0.253 µM
  relative viability: 0.569
201T; first compound 0.8 µM
  relative viability: 0.576
201T; first compound 2.53 µM
  relative viability: 0.624
CAL-12T; first compound 0.08 µM
  relative viability: 0.484
CAL-12T; first compound 0.253 µM
  relative viability: 0.473
CAL-12T; first compound 0.8 µM
  relative viability: 0.34
CAL-12T; first compound 2.53 µM
  relative viability: 0.479
NCI-H1437; first compound 0.08 µM
  relative viability: 0.408
NCI-H1437; first compound 0.253 µM
  relative viability: 0.292
NCI-H1437; first compound 0.8 µM
  relative viability: 0.283
NCI-H1437; first compound 2.53 µM
  relative viability: 0.428
NCI-H2087; first compound 0.08 µM
  relative viability: 0.851
NCI-H2087; first compound 0.253 µM
  relative viability: 0.573
NCI-H2087; first compound 0.8 µM
  relative viability: 0.923
NCI-H2087; first compound 2.53 µM
  relative viability: 0.814
